# According to US4728650A, “3,4-dihydrobenzopyran derivatives and medicinal uses thereof” (Kuraray Co., Ltd., priority 1985, dated 1988):
# Counter-ions that a name gives are not always drawn.
# What was measured:
# [1] = Stress ulcer (water immersion stress) in mice; assay type: in vivo, mice (ddK strain, male); details: Table 1, 25 mg/kg p.o.
# Description: Male mice of ddK strain (body weights, 18-20 g) were placed in a stress cage in groups of 6 animals and immersed down to the level of the xiphoid process in a water bath at 22±1° C. to give a stress. Five hours later the mice were raised from the water bath and the stomach was removed under ether anesthesia. Into the stomach was infused 1.2 ml of a 10% aqueous solution of formaldehyde and, then, the stomach was immersed in a 10% aqueous solution of formaldehyde for 10 minutes for fixation of the tissue. After fixation, an incision was made along the greater curvature for observing ulcers which had appeared in the glandular portion of the stomach. The degree of ulceration was classified according to the following ulcer index scale and the % inhibition of ulcer was estimated.
# 2: Hemorrhage and erosion
# 3: Severe hemorrhage and erosion
# Each test compound was orally administered, as suspended in a gum arabic solution in concentration of 5%, to mice 10 minutes before stress loading.
# [2] = Hydrochloric acid-ethanol-induced ulcer in rats; assay type: in vivo, Wistar rats (male)
# Description: Male Wistar rats (body weights, 170-210 g) were used in groups of 6 to 8 animals. Indomethacin, 20 mg/kg body weight, was injected subcutaneously to rats which had been deprived of food for 24 hours. After 7 hours, the stomach was excised under ether anesthesia. A 10% aqueous solution of formaldehyde was infused into the stomach until the stomach was inflated and, then, the stomach was immersed in a 10% aqueous solution of formaldehyde for 10 minutes for fixation of the tissue. After fixation, an incision was made along the greater curvature and the length of ulcers occurring in the glandular portion of the stomach was measured. The total length of ulcers occurring in a rat was taken as an ulcer index. Each test compound was orally administered, as suspended in a gum arabic solution in concentration of 5%, to rats 10 minutes before subcutaneous injection of indomethacin. Male Wistar rats (body weights, 160-190 g) were used in groups of 6 to 8 animals. One milliliter of a 60% aqueous solution of ethanol containing 150 mM hydrochloric acid was administered orally to rats which had been deprived of food for 24 hours. After one hour, the stomach was excised under ether anesthesia. In a manner similar to that described in study for indomethacin-induced ulcer, the ulcer index was determined. Each test compound was orally administered, as suspended in a gum arabic solution in concentration of 5%, to rats 1 hour before administration of hydrochloric acid-ethanol.
# [3] = Pyloric ligation-induced ulcer (Shay ulcer) in rats; assay type: in vivo, Wistar rats (male); details: Table 2, 50 mg/kg i.d.
# Description: Male Wistar rats (body weights, 180-200 g) were used in groups of 7 animals. After 48-hour fasting, laparotomy was performed under ether anesthesia and the pylorus was ligated with a suture. After 13 hours, the stomach was isolated under ether anesthesia and gastric juice was collected. The gastric juice was centrifuged at 3,000 r.p.m. for 10 minutes and the volume and pH value of gastric juice were determined. The pH value was determined by using pH paper. After collection of gastric juice, a 10% aqueous solution of formaldehyde was infused into the stomach until the stomach was inflated. Then, the stomach was immersed in a 10% aqueous solution of formaldehyde for 10 minutes for fixation of the tissue. After fixation, an incision was made along the greater curvature for observing ulcers which had developed in the glandular portion of the stomach. The degree of ulcer was classified according to the following ulcer index scale.
# 2: 1-5 small ulcers (<3 mm in diameter)
# 3: Six or more small ulcers or one large ulcer (>3 mm in diameter)
# 4: Two or more large ulcers
# Each test compound was administered, as suspended in a gum arabic solution in concentration of 5%, into the duodenum immediately after pyloric ligation.
# [4] = Acute toxicity in mice, oral; design: species or system ddK strain); details: mouse, in vivo, male ddK mice, 10 animals per group
# Description: The 3,4-dihydrobenzopyran compound [I] has been confirmed to be low in toxicity. […] The corresponding values of Compounds (2) to (11) were respectively more than 2,000 mg/kg, and those of compounds (12) to (36) were all more than 3,500 mg/kg.
# [5] = Indomethacin-induced ulcer in rats; assay type: in vivo, Wistar rats (male); details: Table 3, 50 mg/kg p.o.
# Description: Male Wistar rats (body weights, 170-210 g) were used in groups of 6 to 8 animals. Indomethacin, 20 mg/kg body weight, was injected subcutaneously to rats which had been deprived of food for 24 hours. After 7 hours, the stomach was excised under ether anesthesia. A 10% aqueous solution of formaldehyde was infused into the stomach until the stomach was inflated and, then, the stomach was immersed in a 10% aqueous solution of formaldehyde for 10 minutes for fixation of the tissue. After fixation, an incision was made along the greater curvature and the length of ulcers occurring in the glandular portion of the stomach was measured. The total length of ulcers occurring in a rat was taken as an ulcer index. Each test compound was orally administered, as suspended in a gum arabic solution in concentration of 5%, to rats 10 minutes before subcutaneous injection of indomethacin. The doses of test compounds and the ulcer indices for treated and untreated rats are shown in Table 3 for purposes of comparison. The % inhibition of ulcer by each test compound as estimated from the ulcer index is also presented in the same table.
# [6] = Expectorant action: tracheal secretion of fluorescein sodium in rats; assay type: in vivo, Wistar rats (male); details: 50 mg/kg oral
# Description: Male Wistar rats (body weights, 280-320 g) were used in groups of 7 animals. Each test compound was orally administered in dose of 50 mg/kg body weight to rats. Immediately after administration, 0.3 ml/100 g (body weight of rat) of a 1% aqueous solution of fluorescein sodium was injected into the caudal vein. One hour after administration of the test compound, pentobarbital sodium 100 mg/kg (body weight of rat) was injected intraperitoneally so that deep anesthesia might cause the rat to die. Then, the trachea was exposed and an incision was made in the trachea. A sonde was inserted thereinto and ligation was made. To the sonde was connected a syringe containing 10 ml of a 5% solution of sodium hydrogen carbonate kept at 37° C. and 4 ml of the solution of sodium hydrogen carbonate was injected into the lung. After 5 minutes, the fluid in the lung was removed. After this procedure of injection and removal was repeated three times, the fluid removed from the lung was filtered and the filtrate was made up with water to make 20 ml. The intensity of fluroescence was determined at the excitation wave length of 491 nm and the fluorescence wave length of 510 nm using a spectrophotometer (HITACHI model 650-10, Hitachi, Ltd.). The amount of fluorescein sodium secreted into the trachea was estimated from the intensity of fluorescence. Each test compound was administered as suspended in a gum arabic solution in concentration of 5%.
# [7] = Antitussive action: coughing induced by tracheal stimulation in guinea pigs; assay type: in vivo; details: Cavia porcellus, ip; Table 17; intraperitoneal; up and down method
# Description: Pentobarbital sodium 15 mg/kg was injected intraperitoneally to guinea pigs (body weight, 400 g or more) and under slight anesthesia, each guinea pig was immobilized in dorsal position. The skin in the anterior cervical region was incised along the midline and the trachea was exposed so as not to injure the subcutaneous tissue. A small hole was drilled in the anterior aspect of the trachea at a location 1.5 cm distant from the clavicle and through this hole a stimulating hair was inserted over a distance of 3 cm at an angle of 30° from the longitudinal axis of the trachea and, after one second, was pulled out. The stimulation was given 5 and 20 minutes after drilling of the small hole, and after occurrence of coughing was confirmed, each test compound was injected intraperitoneally. At 5 time points, i.e. 15, 30, 60, 90 and 120 minutes after injection, it was checked whether stimulation caused coughing in the same manner as described above. If coughing was not induced, even only once on the five occasions of stimulation, the test compound was regarded as effective, and if cough appeared on all the 5 occasions of stimulation,the test compound was regarded as ineffective. The ED50 value (mg/kg) was determined by the up and down method using 10 guinea pigs [See K. A. Brownlee et al., J. Am. Stat. Assoc. 48, 262 (1953)]. As a stimulating hair, one porcine bristle, about 5 cm long, was used.
# After completion of the study, the skin and wound opening of each guinea pig were fully disinfected with acrinol solution and the skin was sutured. Then, the guniea pigs were maintained as usual. The guinea pigs were not vigorous on the day following the test, with body weights decreased, but recovered after one week. After the lapse of 10 days or more, the animals were resubmitted to the test.
smiles,measurement,setting,value
"COc1c(C)c(C)c2c(c1C)CCC(C)(CC(=O)NC(=N)N)O2 (stereo not drawn) [Compound (1), N-(3,4-Dihydro-6-methoxy-2,5,7,8-tetramethyl-2H-benzopyran-2-yl)acetylguanidine]",% Inhibition of ulcer,[1],61.98%
same,Ulcer index (mean ± S.E.),[1]; control 2.63 ± 0.18,1.00 ± 0.63 mm
same,inhibition in vivo at 25 mg/kg,"[2]; Rattus norvegicus, po, 1 h, Table 7, 25 mg/kg p.o.",91.1%
same,Ulcer index (mean ± S.E.),"[2]; Table 4, 50 mg/kg p.o., control 7.36 ± 1.23",0.39 ± 0.19 mm
same,pH value of gastric juice,[3]; control 1.77 ± 0.54,2.07 ± 0.94
same,Volume of gastric juice,[3]; control 5.09 ± 0.40,3.36 ± 0.90 ml/100 g body weight
same,Ulcer index (mean ± S.E.),"[3]; scale 0-5, control 3.86 ± 0.40",2.33 ± 0.42
same,LD50,[4],3560 mg/kg
same,% Inhibition of ulcer,[5],77.80%
same,Ulcer index (mean ± S.E.),[5]; control 10.36 ± 2.07,2.30 ± 0.58 mm
"CCOC(CN1CCN(CC(C)C(=O)c2ccccc2)CC1)c1ccccc1 (stereo not drawn) [Eprazinone hydrochloride, 3-[4-(β-ethoxyphenethyl)-1-piperadinyl]-2-methylpropiophenone hydrochloride, reference compound]",Secretory amount (mean ± S.E.),"[6]; Table 13, control 5.30 ± 0.40",5.26 ± 0.40 μg/100 g (body weight of rat)/
same,Secretory amount (mean ± S.E.),"[6]; Table 14, control 1.60 ± 0.18",2.67 ± 0.18 μg/100 g (body weight of rat)/
same,Secretory amount (mean ± S.E.),"[6]; Table 16, control 6.455 ± 0.766",5.736 ± 0.369 μg/100 g (body weight of rat)/
same,ED50,[7],122 mg/kg
"COc1cc(C(=O)N2CCN(CCC3(C)CCc4c(C)c(OC)c(C)c(C)c4O3)CC2)cc(OC)c1OC (stereo not drawn) [Compound (17), 3,4-Dihydro-6-methoxy-2-[2-[4-(3,4,5-trimethoxybenzoyl)piperazin-1-yl]ethyl]-2,5,7,8-tetramethyl-2H-benzopyran]",inhibition in vivo at 50 mg/kg,"[2]; Rattus norvegicus, po, 1 h, Table 9, 50 mg/kg p.o.",65.7%
same,Ulcer index (mean ± S.E.),"[2]; Table 9, 50 mg/kg p.o., control 7.22 ± 0.36",2.48 ± 0.68 mm
same,Secretory amount (mean ± S.E.),"[6]; Table 13, control 5.30 ± 0.40",7.90 ± 0.72 μg/100 g (body weight of rat)/
same,Secretory amount (mean ± S.E.),"[6]; Table 15, control 5.20 ± 0.78",9.44 ± 1.14 μg/100 g (body weight of rat)/
same,ED50,[7],113 mg/kg
"COc1ccc(C(=O)N2CCN(CCC3(C)CCc4c(C)c(OC)c(C)c(C)c4O3)CC2)cc1 (stereo not drawn) [Compound (19), 1-[2-(3,4-Dihydro-6-methoxy-2,5,7,8-tetramethyl-2H-benzopyran-2-yl)ethyl]-4-(4-methoxybenzoyl)piperazine]",Secretory amount (mean ± S.E.),"[6]; Table 13, control 5.30 ± 0.40",8.12 ± 0.58 μg/100 g (body weight of rat)/
same,ED50,[7],50.1 mg/kg
